Assay results reported in patent US8063071B2 (GlaxoSmithKline, LLC, priority 2007, dated 2011).
Where a name gives a salt, the structure may show the parent alone.

Tests used:
[1] = molecular target: T1, Recombinant human IKKβ (residues 1-737) (Homo sapiens, UniProt O14920); assay: IKK2 assay (TR-FRET); type: biochemical; details: ATP 1 μM final, read-out: pIC50 against IKK2 (converted)
T1 construct: Recombinant human IKKβ (residues 1-737); GST (C); made in house
T1 sequence (O14920 1-737): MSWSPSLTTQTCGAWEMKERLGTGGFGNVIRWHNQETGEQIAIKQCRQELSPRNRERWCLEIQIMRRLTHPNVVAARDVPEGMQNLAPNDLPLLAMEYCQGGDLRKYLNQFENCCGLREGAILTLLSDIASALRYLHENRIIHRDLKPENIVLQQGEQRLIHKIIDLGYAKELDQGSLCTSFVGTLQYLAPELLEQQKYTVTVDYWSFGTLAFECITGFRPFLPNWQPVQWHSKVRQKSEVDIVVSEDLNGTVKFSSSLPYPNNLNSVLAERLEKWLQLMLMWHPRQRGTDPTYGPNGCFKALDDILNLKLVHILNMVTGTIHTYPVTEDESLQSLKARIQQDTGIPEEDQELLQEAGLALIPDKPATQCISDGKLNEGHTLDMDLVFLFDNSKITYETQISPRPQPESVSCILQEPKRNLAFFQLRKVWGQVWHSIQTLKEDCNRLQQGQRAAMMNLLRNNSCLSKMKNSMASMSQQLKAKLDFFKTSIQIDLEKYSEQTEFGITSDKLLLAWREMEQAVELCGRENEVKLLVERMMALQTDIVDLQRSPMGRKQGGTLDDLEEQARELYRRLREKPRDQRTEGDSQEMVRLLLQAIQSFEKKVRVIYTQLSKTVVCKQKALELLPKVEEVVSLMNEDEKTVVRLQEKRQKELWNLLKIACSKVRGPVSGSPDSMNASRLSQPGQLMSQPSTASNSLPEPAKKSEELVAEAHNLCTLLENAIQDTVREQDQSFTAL
Method in brief: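 TR-FRET readout (665 nm over 620 nm Eu reference) of GST-IB Ser32/36 phosphorylation after 60 min detection. Reaction: 1 μM ATP, 25 nM substrate, 0.5-5 nM GST-fused IKKβ 1-737 from baculovirus, pH 7.4 HEPES buffer, 1.7% DMSO, 15 min room temperature, EDTA-terminated.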

[2] = test system: human monocyte stimulated cytokine production (TNF-α); assay: Monocyte assay (LPS-stimulated TNF-α production); type: cell-based; details: for IC50: 24 h, 200 ng/mL LPS, TNF-α by ELISA
Experimental: Effect of IKK-β inhibition on human monocyte stimulated cytokine production was assessed as follows: Monocytes were isolated from heparinized whole blood by Ficoll gradient, followed by purification of CD14+ cells using MACS magnetic cell separation beads. Isolated monocytes were then adhered to 96-well culture plates at 1×10^6 cells/mL in RPMI 1640 10% FBS (JRH Biosciences, Lenexa Kans.) for 2 h. Test compounds are added to the wells 30 minutes prior to stimulation with a final vehicle concentration of 0.1% DMSO. Monocytes were activated by the addition of 200 ng/mL endotoxin (LPS; E. coli serotype 026:B6)(Sigma, St. Louis, Mo.) and incubated for 24 hrs at 37 C. Cell-free supernates were analyzed by ELISA for TNF-α using Pharmingen matched pair Abs. Viability of the cells was determined by 10% trypan blue exclusion.

Structure (SMILES)	IC50 [1] [nM]	IC50 [2] [nM]	inhibition at 0.3 µM ([2]; read-out: inhibition at 300 nM in the monocyte assay) [%]
CCS(=O)(=O)N1CCC(c2c[nH]c3c(C(N)=O)cc(-c4csc(CN5CCC[C@H]5C)c4)cc23)CC1 [Example 218, 3-[1-(ethylsulfonyl)-4-piperidinyl]-5-(5-{[(2R)-2-methyl-1-pyrrolidinyl]methyl}-1′-3-thienyl)-1H-indole-7-carboxamide]	≤ 10000	≤ 1500	–
CCS(=O)(=O)N1CCC(c2c[nH]c3c(C(N)=O)cc(-c4ccc(F)c(CNC(CO)CO)c4)cc23)CC1 [Example 272, 3-[1-(ethylsulfonyl)-4-piperidinyl]-5-[4-fluoro-3-({[2-hydroxy-1-(hydroxymethyl)ethyl]amino}methyl)phenyl]-1H-indole-7-carboxamide trifluoroacetate (salt)]	≤ 10000	> 1000	–
CCS(=O)(=O)N1CCC(c2c[nH]c3c(C(N)=O)cc(-c4csc(C(C)N5CCCC5)c4)cc23)CC1 (stereo not shown) [Example 238, 3-[1-(ethylsulfonyl)-4-piperidinyl]-5-{5-[1-(1-pyrrolidinyl)ethyl]-3-thienyl}-1H-indole-7-carboxamide trifluoroacetate]	≤ 10000	≤ 1500	–
CCS(=O)(=O)N1CCC(c2c[nH]c3c(C(N)=O)cc(-c4ccc(N5CCN(C)CC5=O)cc4)cc23)CC1 [Example 388, 3-[1-(ethylsulfonyl)-4-piperidinyl]-5-[4-(4-methyl-2-oxo-1-piperazinyl)phenyl]-1H-indole-7-carboxamide]	≤ 10000	> 1000	–
CCS(=O)(=O)N1CCC(c2c[nH]c3c(C(N)=O)cc(-c4cccc(-n5cccn5)c4)cc23)CC1 [Example 164, 3-[1-(ethylsulfonyl)-4-piperidinyl]-5-[3-(1H-pyrazol-1-yl)phenyl]-1H-indole-7-carboxamide]	–	≤ 1500	–
CCCOCCCNCc1ccc(-c2cc(C(N)=O)c3[nH]cc(C4CCN(S(=O)(=O)CC)CC4)c3c2)s1 [Example 198, 3-[1-(ethylsulfonyl)-4-piperidinyl]-5-[5-({[3-(propyloxy)propyl]amino}methyl)-2-thienyl]-1H-indole-7-carboxamide]	–	–	0 to 60

The next lines start with results.

IC50 [1] [nM]	IC50 [2] [nM]	Structure (SMILES)	inhibition at 0.3 µM ([2]; read-out: inhibition at 300 nM in the monocyte assay) [%]
≤ 10000	≤ 1500	CCS(=O)(=O)N1CCC(c2c[nH]c3c(C(N)=O)cc(-c4csc(CNC5CCCC5)c4)cc23)CC1 [Example 114, 5-{5-[(cyclopentylamino)methyl]-3-thienyl}-3-[1-(ethylsulfonyl)-4-piperidinyl]-1H-indole-7-carboxamide trifluoroacetate]	–
≤ 10000	≤ 1500	CCS(=O)(=O)N1CCC(c2c[nH]c3c(C(N)=O)cc(-c4csc(CNC)c4)cc23)CC1 [Example 230, 3-[1-(ethylsulfonyl)-4-piperidinyl]-5-{5-[(methylamino)methyl]-3-thienyl}-1H-indole-7-carboxamide trifluoroacetate]	–
≤ 10000	> 1000	CCS(=O)(=O)N1CCC(c2c[nH]c3c(C(N)=O)cc(-c4ccc(CNC(CO)CO)cc4)cc23)CC1 [Example 153, 3-[1-(ethylsulfonyl)-4-piperidinyl]-5-[4-({[2-hydroxy-1-(hydroxymethyl)ethyl]amino}methyl)phenyl]-1H-indole-7-carboxamide trifluoroacetate]	–
≤ 10000	≤ 1500	CCCCNCc1cc(-c2cc(C(N)=O)c3[nH]cc(C4CCN(S(=O)(=O)CC)CC4)c3c2)cs1 [Example 121, 5-{5-[(butylamino)methyl]-3-thienyl}-3-[1-(ethylsulfonyl)-4-piperidinyl]-1H-indole-7-carboxamide trifluoroacetate]	–
–	≤ 1500	CCS(=O)(=O)N1CCC(c2c[nH]c3c(C(N)=O)cc(-c4ccc(CNCC(C)C)s4)cc23)CC1 [Example 243, 3-[1-(ethylsulfonyl)-4-piperidinyl]-5-(5-{[(2-methylpropyl)amino]methyl}-2-thienyl)-1H-indole-7-carboxamide trifluoroacetate]	–
